{"source": "paper PMC10715210", "about": "“Colistin plasma concentrations are not associated with better clinical outcomes in patients with pneumonia caused by extremely drug-resistant Pseudomonas aeruginosa” (Microbiology Spectrum, 2023)", "origin": "cited, not measured here", "settings": "samples drawn at 45 min after the start of infusion; loading dose 9 million IU CMS then 4.5 million IU every 12 hours; cited from earlier work", "description": "([10]). […] Concentrations of CMS and formed colistin in plasma were measured as reported previously ([35], [36]). The limits of quantification for colistin and CMS in plasma were 0.20 and 0.50 mg/L, respectively. Based on the almost flat plasma concentration-time profiles of formed colistin at st ...", "note": "Positions of bridges follow the written chain, without caps; N, C: chain ends. Non-standard residues stand in square brackets, D forms with d. Residues, ends and D or L forms follow the SMILES beside them. *: point of attachment. X1 = CC[C@H](C)CCCCC(=O)*; Dab = NCC[C@H](N)C(=O)O", "data": [{"molecule": "CC[C@H](C)CCCCC(=O)N[C@@H](CCN)C(=O)N[C@H](C(=O)N[C@@H](CCN)C(=O)N[C@H]1CCNC(=O)[C@H]([C@@H](C)O)NC(=O)[C@H](CCN)NC(=O)[C@H](CCN)NC(=O)[C@H](CC(C)C)NC(=O)[C@@H](CC(C)C)NC(=O)[C@H](CCN)NC1=O)[C@@H](C)O", "note": "[colistin] (X1-[Dab]T[Dab][Dab][Dab][dL]L[Dab][Dab]T; lactam 4-C)", "values": [{"measurement": "Colistin plasma concentration", "result": "0.44 (0.14–1.59) mg/L"}]}]}
